Source: patent publication EP4813979A1, “COMPOUND FOR EGFR PROTEIN DEGRADATION AND USE THEREOF” (TYK Medicines, Inc., priority 2023, dated 2025)
Read-outs that look alike come from different tables or passages of the source.

Tests used:
Type in all cases: cell-based
[1] = target: EGFR in Baf3-19del-T790M-C797S (Homo sapiens, UniProt P00533, C797S/DEL746-750/T790M); assay: EGFR PROTAC HTRF experiment (total EGFR degradation)
Description: (§1) [table] Among them, B[…] -C797S (abbreviated as Baf3-DTC) is a stable Ba/F3 clone expressing exogenous EGFR gene bearing T790M, C797S and […] triple amino acid mutations, purchased from KYinno; Baf3-L858R-T790M - C797S (abbreviated as Baf3-LTC) is a stable Ba/F3 clone expressing exogenous EGFR gene bearing […], T790M, C797S triple mutations, purchased from KYinno. [table] [table] Dilutded Eu and d2 antibodies 2μl per well with detection buffer 20-fold. Then mixed the two antibody vials thoroughly. [table] Opened EnVision , locate the HTRF program, configured the board, and then read […]. The fitted curve, DC50 and Dmax of this compound could be generated using GraphPad Prism .

[2] = target: EGFR in Baf3-L858R-T790M-C797S (Homo sapiens, UniProt P00533, C797S/L858R/T790M); assay: as above
Description: as §1

[3] = test system: Baf3-19del- T790M -C797S (Baf3-DTC); assay: Cell anti-proliferation experiment (CTG); conditions: class symbol
Text: (§2) H1975 has an EGFR: T790M/L858R double mutation, PC-9 has an EGFR exon 19 deletion, and HCC827 has an exon 19 deletion mutation. Baf3-19del- T790M -C797S (Baf3-DTC) is a stable Ba/F3 clone expressing exogenous EGFR gene bearing T790M, C797S, and […] triple amino acid mutations, purchased from KYinno. Baf3-L858R-T790M - C797S (Baf3-LTC) is a stable Ba/F3 clone expressing exogenous EGFR gene bearing […], T790M, and C797S triple mutations, purchased from KYinno. A549 is a wild-type EGFR, purchased from Nanjing Kebai Biotechnology. A431 is a wild-type EGFR, purchased from Shanghai Xinyu Biotechnology. CellCounting-Lite2.0, Trypsin EDTA, 37°C CO2 incubator, cell counter, EnVision Serial No. 1050454.
(§3) • A) Digested logarithmic phase cells with Trypsin EDTA, added culture medium to stop the reaction, and mixing well with a pipette to prepare a cell suspension. • B) Used Vi-cell to determine cell concentration, and prepared a suspension of 15,000-25,000 cells per milliliter according to the experimental purpose and cell characteristics. • C) After prepared the cell suspension, mixed it gently and added 100 µL to each well, so that the cell density to be tested is 1500-2500 per well.
(§4) • A) Weighed approximately 2 mg the compound and calculated the required volume of DMSO according to the formula: Compound mass (mg) * Compound purity (%) / Compound molecular weight * 1000. • B) Placed the inoculated cell culture plate into an incubator and incubated for about 24 hours. Then added compounds of varying concentrations. • C) Diluted the 10mM compound stock solution to […] with culture medium, and added the […] compound solution to the second column of the deep well plate in sequence, and added […] culture medium containing 0.5% DMSO to the third to eleventh columns. • D) Gradient dilution: Taked 125 µL solution from the second column and added it to the third column, mix well; then taked 125 µL solution from the third column and added it to the fourth column, repeated this operation until the tenth column. • E) Used a multichannel pipette, aspirated 25 µL the compound from the deep-well plate and added it to a 96-well culture plate. Repeated this process three times for each compound on the 96-well plate. This will ultimately create a concentration gradient of up to 10,000 nM at a 1:4 ratio on the 96-well plate.
(§5) • A) The effects of the compound were observed under an inverted microscope after the 96-well plate was incubated in an incubator for 72 hours. • B) Added 25 µL CTG solution to each well, placed on a shaker for 10 minutes, and read the […] of each well.
(§6) Calculate the % Cell Viability using the following formula: %Cell Viability = 100% × (Lum_Sample−Lum_LC)/(Lum_HC−Lum_LC) [formula] • Lum_HC: Cell readings from the 0.1% DMSO control group • Lum_Sample: Cell readings with added compound • Lum_LC: Blank culture medium reading
(§7) The IC50 value was obtained by curve fitting using GraphPad Prism 8 software.

PC-9 = assay: Cell anti-proliferation experiment (CTG); conditions: Homo sapiens, PC-9 (EGFR exon 19 deletion), class symbol
Text: as §2, §3, §4, §5, §6, §7

H1975 = assay: Cell anti-proliferation experiment (CTG); conditions: Homo sapiens, H1975 (EGFR T790M/L858R), class symbol
Text: as §2, §3, §4, §5, §6, §7

[4] = test system: Baf3-L858R-T790M - C797S (Baf3-LTC); assay: Cell anti-proliferation experiment (CTG); conditions: class symbol
Text: as §2, §3, §4, §5, §6, §7

HCC827 = assay: Cell anti-proliferation experiment (CTG); conditions: Homo sapiens, HCC827 (exon 19 deletion), class symbol
Text: as §2, §3, §4, §5, §6, §7

A431 = assay: Cell anti-proliferation experiment (CTG); conditions: Homo sapiens, A431 (wild-type EGFR), class symbol
Text: as §2, §3, §4, §5, §6, §7

A549 = assay: Cell anti-proliferation experiment (CTG); conditions: Homo sapiens, A549 (wild-type EGFR), class symbol
Text: as §2, §3, §4, §5, §6, §7

[5] = Baf3-DTC, incubated 16 hours, HTRF total EGFR; read-out: Baf3-DTC DC50
[6] = Baf3-LTC, incubated 16 hours, HTRF total EGFR; read-out: Baf3-LTC DC50
[7] = Baf3-DTC, incubated 16 hours, HTRF total EGFR; read-out: Baf3-DTC Dmax
[8] = Baf3-LTC, incubated 16 hours, HTRF total EGFR; read-out: Baf3-LTC Dmax

Sequence of EGFR in Baf3-19del-T790M-C797S (P00533 with tags, fused parts or gaps DEL746-750/T790M/C797S): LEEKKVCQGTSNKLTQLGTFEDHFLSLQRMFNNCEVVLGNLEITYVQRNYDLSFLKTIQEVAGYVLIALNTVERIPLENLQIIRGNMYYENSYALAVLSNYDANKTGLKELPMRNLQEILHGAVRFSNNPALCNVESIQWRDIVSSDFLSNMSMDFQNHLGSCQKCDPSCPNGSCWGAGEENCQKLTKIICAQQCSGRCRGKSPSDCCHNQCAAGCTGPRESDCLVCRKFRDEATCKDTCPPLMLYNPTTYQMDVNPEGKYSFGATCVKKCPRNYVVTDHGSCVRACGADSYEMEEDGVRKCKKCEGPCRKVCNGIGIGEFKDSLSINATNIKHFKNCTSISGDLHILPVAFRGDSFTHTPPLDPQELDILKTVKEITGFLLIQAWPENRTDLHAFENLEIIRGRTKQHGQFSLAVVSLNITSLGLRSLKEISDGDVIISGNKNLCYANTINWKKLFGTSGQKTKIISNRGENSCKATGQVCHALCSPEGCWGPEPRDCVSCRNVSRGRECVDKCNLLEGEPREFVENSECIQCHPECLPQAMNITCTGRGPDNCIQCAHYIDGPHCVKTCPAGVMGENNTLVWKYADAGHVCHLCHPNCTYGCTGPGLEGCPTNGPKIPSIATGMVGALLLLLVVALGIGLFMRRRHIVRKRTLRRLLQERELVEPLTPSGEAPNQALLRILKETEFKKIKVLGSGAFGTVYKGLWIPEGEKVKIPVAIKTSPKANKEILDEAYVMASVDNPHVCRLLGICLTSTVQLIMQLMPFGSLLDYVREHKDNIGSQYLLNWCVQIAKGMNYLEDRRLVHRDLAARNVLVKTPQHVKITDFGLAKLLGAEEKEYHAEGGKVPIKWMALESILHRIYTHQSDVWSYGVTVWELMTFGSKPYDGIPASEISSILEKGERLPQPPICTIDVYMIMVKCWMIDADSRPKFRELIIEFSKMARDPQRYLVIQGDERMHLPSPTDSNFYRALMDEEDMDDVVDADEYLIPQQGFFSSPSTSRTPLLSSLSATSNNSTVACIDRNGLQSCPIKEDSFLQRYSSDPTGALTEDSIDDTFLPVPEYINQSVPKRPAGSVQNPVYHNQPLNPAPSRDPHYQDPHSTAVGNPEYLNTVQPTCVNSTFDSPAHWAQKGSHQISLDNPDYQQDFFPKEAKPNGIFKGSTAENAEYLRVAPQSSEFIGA
Sequence of EGFR in Baf3-L858R-T790M-C797S (P00533 25-1210 T790M/C797S/L858R): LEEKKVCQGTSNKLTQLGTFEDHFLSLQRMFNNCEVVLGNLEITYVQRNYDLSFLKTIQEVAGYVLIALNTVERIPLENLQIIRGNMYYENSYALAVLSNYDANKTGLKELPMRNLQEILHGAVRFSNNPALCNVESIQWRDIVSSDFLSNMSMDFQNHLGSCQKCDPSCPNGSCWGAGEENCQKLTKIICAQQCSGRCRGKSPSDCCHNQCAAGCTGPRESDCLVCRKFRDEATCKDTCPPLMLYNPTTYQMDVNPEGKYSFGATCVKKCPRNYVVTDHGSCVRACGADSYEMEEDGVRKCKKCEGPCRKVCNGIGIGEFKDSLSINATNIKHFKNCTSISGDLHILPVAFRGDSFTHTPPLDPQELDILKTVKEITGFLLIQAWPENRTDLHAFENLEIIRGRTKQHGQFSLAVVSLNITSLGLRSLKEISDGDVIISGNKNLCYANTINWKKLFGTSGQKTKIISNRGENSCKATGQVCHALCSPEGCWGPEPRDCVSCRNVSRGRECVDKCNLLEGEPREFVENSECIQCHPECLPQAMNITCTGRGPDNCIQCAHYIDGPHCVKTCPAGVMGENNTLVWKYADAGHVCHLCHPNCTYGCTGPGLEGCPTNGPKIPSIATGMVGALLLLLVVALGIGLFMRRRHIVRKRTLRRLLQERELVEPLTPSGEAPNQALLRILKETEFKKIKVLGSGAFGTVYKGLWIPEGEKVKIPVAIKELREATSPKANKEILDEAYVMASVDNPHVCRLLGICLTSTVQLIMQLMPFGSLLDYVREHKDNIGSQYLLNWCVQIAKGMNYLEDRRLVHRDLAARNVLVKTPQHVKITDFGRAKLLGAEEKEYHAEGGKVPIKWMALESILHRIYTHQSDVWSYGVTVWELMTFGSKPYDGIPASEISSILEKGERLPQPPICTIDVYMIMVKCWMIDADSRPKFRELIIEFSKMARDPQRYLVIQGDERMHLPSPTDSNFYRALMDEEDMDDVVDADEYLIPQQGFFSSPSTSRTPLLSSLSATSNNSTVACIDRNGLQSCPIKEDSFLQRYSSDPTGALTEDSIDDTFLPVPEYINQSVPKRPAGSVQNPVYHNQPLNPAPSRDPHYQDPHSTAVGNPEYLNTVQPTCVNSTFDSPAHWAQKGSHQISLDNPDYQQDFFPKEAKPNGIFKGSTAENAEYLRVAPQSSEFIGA

CCc1cc(Nc2ncc(Cl)c(Nc3ccccc3P3(=O)CCCC3)n2)c(OC)cc1N1CCN(C(=O)CN2CCC(c3cc4c(cc3F)c(N3CCC(=O)NC3=O)nn4C)C(F)(F)C2)CC1 (centres unmarked) [TA-045]
DC50 [1, 5]: 10 to 100 nM | Dmax ([1]; read-out: Baf3-DTC Dmax): 70 to 100% | DC50 [2, 6]: 10 to 100 nM | Dmax ([2]; read-out: Baf3-LTC Dmax): 70 to 100%

CCc1cc(Nc2ncc(Cl)c(Nc3ccc4nccnc4c3P(C)(C)=O)n2)c(OC)cc1N1CCN(C(=O)CN2CCC(c3cc4c(cc3F)c(N3CCC(=O)NC3=O)nn4C)C(F)(F)C2)CC1 (centres unmarked) [TA-007]
DC50 ([1]; read-out: Baf3-DTC DC50; Baf3-DTC, incubated 16 hours, HTRF total EGFR): < 10 nM | Dmax ([1]; read-out: Baf3-DTC Dmax): 70 to 100% | DC50 ([2]; read-out: Baf3-LTC DC50; Baf3-LTC, incubated 16 hours, HTRF total EGFR): < 10 nM | Dmax ([2]; read-out: Baf3-LTC Dmax): 70 to 100% | IC50 ([3]; 72 hours): 10 to 100 nM | IC50 (PC-9; 72 hours): 100 to 1000 nM | IC50 (H1975; NCI-H1975, 72 hours): 100 to 1000 nM | IC50 ([4]; 72 hours): < 10 nM | IC50 (HCC827; 72 hours): 10 to 100 nM | IC50 (A431; A-431, 72 hours): 10 to 100 nM | IC50 (A549; 72 hours): 10 to 100 nM

CCc1cc(Nc2ncc(Cl)c(Nc3ccccc3N(C)S(C)(=O)=O)n2)c(OC)cc1N1CCN(C(=O)CN2CCC(c3cc4c(cc3F)c(N3CCC(=O)NC3=O)nn4C)C(F)(F)C2)CC1 (centres unmarked) [TA-013]
DC50 [1, 5]: < 10 nM | Dmax [1, 7]: 70 to 100% | DC50 [2, 6]: < 10 nM | Dmax [2, 8]: 70 to 100% | IC50 ([3]; 72 h): < 10 nM | IC50 (PC-9; PC-9, 72 h): > 1000 nM | IC50 (H1975; NCI-H1975, 72 h): 10 to 100 nM | IC50 ([4]; 72 h): 10 to 100 nM | IC50 (HCC827; HCC827, 72 h): > 1000 nM | IC50 (A431; A-431, 72 h): > 1000 nM | IC50 (A549; A549, 72 h): > 1000 nM

CCc1cc(Nc2ncc(Cl)c(Nc3ccc(OC)cc3C(C)=O)n2)c(OC)cc1N1CCN(C(=O)CN2CCC(c3cc4c(cc3F)c(N3CCC(=O)NC3=O)nn4C)C(F)(F)C2)CC1 (centres unmarked) [TA-017]
DC50 [1, 5]: 100 to 1000 nM | Dmax [1, 7]: 70 to 100% | DC50 [2, 6]: 100 to 1000 nM | Dmax [2, 8]: 70 to 100%

CCc1cc(Nc2ncc(Cl)c(Nc3ccccc3C(=O)NC)n2)c(OC)cc1N1CCN(CCN2CCC(c3cc4c(cc3F)c(N3CCC(=O)NC3=O)nn4C)CC2)CC1 [TD-001]
DC50 [1, 5]: 100 to 1000 nM | Dmax [1, 7]: 50 to 70% | DC50 [2, 6]: 10 to 100 nM | Dmax [2, 8]: 50 to 70% | IC50 ([3]; 72 h): 10 to 100 nM | IC50 (PC-9; PC-9, 72 h): 100 to 1000 nM | IC50 (H1975; NCI-H1975, 72 h): < 10 nM | IC50 ([4]; 72 h): 10 to 100 nM | IC50 (HCC827; HCC827, 72 h): < 10 nM | IC50 (A431; A-431, 72 h): > 1000 nM | IC50 (A549; A549, 72 h): 10 to 100 nM
